Data: US9173917B2, “Methods for reducing oxidative stress in a cell with a sulfhydryl protected glutathione prodrug” (Max International, LLC, priority 2003, dated 2015)
“Also recorded” adds a separate entry of the source.

Legend:
[1] = system: ACP-induced hepatotoxicity; experiment: Protection from ACP-induced hepatotoxicity in mice (plasma ALT levels); type: in vivo, Male Swiss-Webster mice
Protocol: Male Swiss-Webster mice weighing 24-34 g were administered ACP [360 mg (or 2.45 mmol)/kg, i.p.].
In protocol 4′B, a priming dose of the prodrug (1.25 mmole/kg, i.p.) was administered 60 min prior to ACP followed by a subsequent dose (2.50 mmol/kg) 30 min post-ACP.
In protocol 3′B, the pre- and post-ACP doses were reversed.
In protocol 1, a single dose of drug was administered 30 min post-ACP.
Protocol 1′ is identical to 3′B except that the pH of the injection solution was not adjusted. In the B series, the pH of the injection solution was adjusted to neutrality with dilute, aqueous NaOH or HCl

[2] = unlike GSH or its carboxy esters with free -SH groups that are subject to oxidation; refs (9, 17); cited from earlier work

## CCOC(=O)CNC(=O)C(CSC(C)=O)NC(=O)CCC(N)C(=O)O (stereo not shown) [S-Ac-GSH-OEt, S-acetylglutathione ethyl ester]
[1]; FIGS. 1, 3 and 4
  usefulness for treating/preventing oxidative stress in the mouse model: useful for treating oxidative stress

## N[C@@H](CCC(=O)N[C@@H](CSSC[C@H](N)C(=O)O)C(=O)NCC(=O)O)C(=O)O [L-CySSG, L-cysteine-GSH disulfide]
[2]
  stability: stable

## N[C@H](CSSC[C@H](NC(=O)CC[C@H](N)C(=O)O)C(=O)NCC(=O)O)C(=O)O [D-CySSG]
[1]; FIG. 1, mouse model, protocol 4'B
  hepatoprotection against ACP toxicity: lack of significant activity; also recorded: not hepatoprotective; also recorded: lack of hepatoprotection
[1]; FIG. 1, protocol 4'B: prodrug 1.25 mmole/kg i.p. 60 min prior to ACP, 2.50 mmol/kg 30 min post-ACP, ACP 360 mg/kg i.p., ALT 24 hrs post-ACP
  plasma alanine aminotransferase (ALT) levels of ACP-treated mice: statistically similar to that for ACP alone; also recorded: comparable to that for ACP alone
